According to ChEMBL document CHEMBL2380246, “Structure-activity relationships of hybrid annonaceous acetogenins: powerful growth inhibitory effects of their connecting groups between heterocycle and hydrophobic carbon chain bearing THF ring on human cancer cell lines” (2013):

Columns and labels:
Format in all cases: functional
St-4 = test: Growth inhibition of human St-4 cells after 48 hrs by sulforhodamine B assay; settings: St-4, 48 h
OVCAR-5 = test: Growth inhibition of human OVCAR5 cells after 48 hrs by sulforhodamine B assay; settings: OVCAR-5, 48 h
SF-539 = test: Growth inhibition of human SF539 cells after 48 hrs by sulforhodamine B assay; settings: SF-539, 48 h
NCI-H460 = test: Growth inhibition of human NCI-H460 cells after 48 hrs by sulforhodamine B assay; settings: NCI-H460, 48 h
OVCAR-3 = test: Growth inhibition of human OVCAR3 cells after 48 hrs by sulforhodamine B assay; settings: OVCAR-3, 48 h
LOX IMVI = test: Growth inhibition of human LOXIMVI cells after 48 hrs by sulforhodamine B assay
[1] = Growth inhibition of human MKN1 cells after 48 hrs by sulforhodamine B assay; settings: MKN-1, 48 h
[2] = Growth inhibition of human HBC5 cells after 48 hrs by sulforhodamine B assay; settings: HBC5, 48 h
SNB-75 = test: Growth inhibition of human SNB75 cells after 48 hrs by sulforhodamine B assay; settings: SNB-75, 48 h
SF-295 = test: Growth inhibition of human SF295 cells after 48 hrs by sulforhodamine B assay; settings: SF-295, 48 h
HCT-15 = test: Growth inhibition of human HCT15 cells after 48 hrs by sulforhodamine B assay; settings: HCT-15, 48 h
[3] = Growth inhibition of human BSY1 cells after 48 hrs by sulforhodamine B assay; settings: BSY-1, 48 h
SNB-78 = test: Growth inhibition of human SNB78 cells after 48 hrs by sulforhodamine B assay; settings: SNB-78, 48 h
U-251 = test: Growth inhibition of human U251 cells after 48 hrs by sulforhodamine B assay; settings: U-251, 48 h
NCI-H522 = test: Growth inhibition of human NCI-H522 cells after 48 hrs by sulforhodamine B assay; settings: NCI-H522, 48 h
HCT-116 = test: Growth inhibition of human HCT116 cells after 48 hrs by sulforhodamine B assay; settings: HCT-116, 48 h
MKN-45 = test: Growth inhibition of human MKN45 cells after 48 hrs by sulforhodamine B assay; settings: MKN-45, 48 h
[4] = Growth inhibition of human HCC2998 cells after 48 hrs by sulforhodamine B assay; settings: HCC 2998, 48 h
DMS-273 = test: Growth inhibition of human DMS273 cells after 48 hrs by sulforhodamine B assay; settings: DMS-273, 48 h
DMS-114 = test: Growth inhibition of human DMS114 cells after 48 hrs by sulforhodamine B assay; settings: DMS-114, 48 h
[5] = Growth inhibition of human RXF631L cells after 48 hrs by sulforhodamine B assay; settings: RXF 631, 48 h
DU-145 = test: Growth inhibition of human DU145 cells after 48 hrs by sulforhodamine B assay; settings: DU-145, 48 h
MKN-28 = test: Growth inhibition of human MKN28 cells after 48 hrs by sulforhodamine B assay; settings: MKN-28, 48 h
NCI-H23 = test: Growth inhibition of human NCI-H23 cells after 48 hrs by sulforhodamine B assay; settings: NCI-H23, 48 h
OVCAR-8 = test: Growth inhibition of human OVCAR8 cells after 48 hrs by sulforhodamine B assay; settings: OVCAR-8, 48 h
[6] = Growth inhibition of human HBC4 cells after 48 hrs by sulforhodamine B assay; settings: HBC4, 48 h
ACHN = test: Growth inhibition of human ACHN cells after 48 hrs by sulforhodamine B assay
SF-268 = test: Growth inhibition of human SF268 cells after 48 hrs by sulforhodamine B assay; settings: SF-268, 48 h
MCF7 = test: Growth inhibition of human MCF7 cells after 48 hrs by sulforhodamine B assay; settings: MCF7, 48 h
MDA-MB-231 = test: Growth inhibition of human MDA-MB-231 cells after 48 hrs by sulforhodamine B assay; settings: MDA-MB-231, 48 h
A549 = test: Growth inhibition of human A549 cells after 48 hrs by sulforhodamine B assay; settings: A549, 48 h
KM12 = test: Growth inhibition of human KM12 cells after 48 hrs by sulforhodamine B assay; settings: KM12, 48 h
MKN-7 = test: Growth inhibition of human MKN7 cells after 48 hrs by sulforhodamine B assay; settings: MKN-7, 48 h
HT-29 = test: Growth inhibition of human HT-29 cells after 48 hrs by sulforhodamine B assay; settings: HT-29, 48 h
NCI-H226 = test: Growth inhibition of human NCI-H226 cells after 48 hrs by sulforhodamine B assay; settings: NCI-H226, 48 h
OVCAR-4 = test: Growth inhibition of human OVCAR4 cells after 48 hrs by sulforhodamine B assay; settings: OVCAR-4, 48 h
PC-3 = test: Growth inhibition of human PC3 cells after 48 hrs by sulforhodamine B assay; settings: PC-3, 48 h
MKN-74 = test: Growth inhibition of human MKN74 cells after 48 hrs by sulforhodamine B assay; settings: MKN-74, 48 h
SK-OV-3 = test: Growth inhibition of human SKOV3 cells after 48 hrs by sulforhodamine B assay; settings: SK-OV-3, 48 h

Compound	GI50 (St-4) [µM]	GI50 (OVCAR-5) [µM]	GI50 (SF-539) [µM]	GI50 (NCI-H460) [µM]	GI50 (OVCAR-3) [µM]	GI50 (LOX IMVI) [µM]	GI50 [1] [µM]	GI50 [2] [µM]	GI50 (SNB-75) [µM]	GI50 (SF-295) [µM]	GI50 (HCT-15) [µM]	GI50 [3] [µM]	GI50 (SNB-78) [µM]	GI50 (U-251) [µM]	GI50 (NCI-H522) [µM]	GI50 (HCT-116) [µM]	GI50 (MKN-45) [µM]	GI50 [4] [µM]	GI50 (DMS-273) [µM]	GI50 (DMS-114) [µM]	also measured
CCCCCCCCCCCC[C@@H](O)[C@H]1CC[C@H]([C@H](O)CCCCCCCCCCNCc2ccnn2C)O1	1.82	3.09	1.58	1.7	1.51	1.2	1.41	2.09	2	1.2	2	0.339	2.09	1.51	1.29	1.1	1.82	1.82	1.58	0.129	GI50 [5]: 2.4 µM; GI50 (DU-145): 4.37 µM; GI50 (MKN-28): 0.501 µM; GI50 (NCI-H23): 0.646 µM; GI50 (OVCAR-8): 1.58 µM; GI50 [6]: 1.82 µM; GI50 (ACHN): 3.09 µM; GI50 (SF-268): 3.63 µM; GI50 (MCF7): 1.7 µM; GI50 (MDA-MB-231): 2.19 µM; GI50 (A549): 8.71 µM; GI50 (KM12): 1.41 µM; GI50 (MKN-7): 0.309 µM; GI50 (HT-29): 3.02 µM; GI50 (NCI-H226): 3.31 µM; GI50 (OVCAR-4): 1.58 µM; GI50 (PC-3): 2.29 µM; GI50 (MKN-74): 1.29 µM; GI50 (SK-OV-3): 2.09 µM
CCCCCCCCCCCC[C@@H](O)[C@H]1CC[C@H]([C@H](O)CCCCCCCCCCOC(=O)c2ccnn2C)O1	30.2	> 100	> 100	34.7	> 100	12.9	43.7	25.7	> 100	30.9	47.9	0.813	44.7	69.2	6.31	3.98	> 100	46.8	38	0.407	GI50 [5]: > 100 µM; GI50 (DU-145): > 100 µM; GI50 (MKN-28): 2.51 µM; GI50 (NCI-H23): 11 µM; GI50 (OVCAR-8): > 100 µM; GI50 [6]: 51.3 µM; GI50 (ACHN): 57.5 µM; GI50 (SF-268): > 100 µM; GI50 (MCF7): 22.9 µM; GI50 (MDA-MB-231): > 100 µM; GI50 (A549): 56.2 µM; GI50 (KM12): 20 µM; GI50 (MKN-7): 0.617 µM; GI50 (HT-29): 32.4 µM; GI50 (NCI-H226): 28.2 µM; GI50 (OVCAR-4): > 100 µM; GI50 (PC-3): 28.2 µM; GI50 (MKN-74): 30.9 µM; GI50 (SK-OV-3): > 100 µM
CCCCCCCCCCCC[C@@H](O)[C@H]1CC[C@H]([C@H](O)CCCCCCCCCCN(C)C(=O)c2ccnn2C)O1	6.76	14.1	12	5.5	10	1.41	5.5	3.09	15.8	2	10	0.501	12	10	2.29	0.794	11	12	3.31	0.0347	GI50 [5]: 11 µM; GI50 (DU-145): 12.9 µM; GI50 (MKN-28): 0.302 µM; GI50 (NCI-H23): 0.24 µM; GI50 (OVCAR-8): 6.03 µM; GI50 [6]: 10 µM; GI50 (ACHN): 11 µM; GI50 (SF-268): 15.1 µM; GI50 (MCF7): 5.01 µM; GI50 (MDA-MB-231): 8.91 µM; GI50 (A549): 8.51 µM; GI50 (KM12): 4.17 µM; GI50 (MKN-7): 0.0513 µM; GI50 (HT-29): 8.13 µM; GI50 (NCI-H226): 9.77 µM; GI50 (OVCAR-4): 10 µM; GI50 (PC-3): 2.19 µM; GI50 (MKN-74): 1.7 µM; GI50 (SK-OV-3): 15.8 µM
